Test results taken from patent US8173689B2 (Novartis AG, priority 2006, dated 2012).
Where two headings read alike, the source gives them in different places.

Assays:
[1] = biological target: T1, cytoplasmic domain of the human CSF-1R (Homo sapiens, UniProt P07333); assay: In vitro kinase assay for colony stimulating factor-1 receptor (AlphaScreen); format: biochemical; details: tested at about 1 μM, read-out: CSF-1R percent inhibition
T1 construct: Recombinant protein corresponding to the cytoplasmic domain of the human CSF-1R; purchased Invitrogen Corporation, Carlsbad, Calif; PV3249
T1 sequence (P07333 539-972 limits assumed): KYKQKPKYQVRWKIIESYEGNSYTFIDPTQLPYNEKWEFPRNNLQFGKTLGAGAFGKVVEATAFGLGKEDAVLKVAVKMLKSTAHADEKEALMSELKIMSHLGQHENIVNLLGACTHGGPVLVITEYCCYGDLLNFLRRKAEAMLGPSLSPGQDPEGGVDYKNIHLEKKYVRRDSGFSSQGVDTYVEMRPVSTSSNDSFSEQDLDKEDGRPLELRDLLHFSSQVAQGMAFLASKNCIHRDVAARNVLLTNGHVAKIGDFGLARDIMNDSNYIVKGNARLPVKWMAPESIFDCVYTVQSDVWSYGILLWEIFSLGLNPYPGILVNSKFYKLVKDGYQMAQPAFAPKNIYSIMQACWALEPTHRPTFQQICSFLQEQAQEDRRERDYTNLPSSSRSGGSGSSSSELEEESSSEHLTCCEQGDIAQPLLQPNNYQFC
Method in brief: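 Kinase reaction used 4 nM recombinant cytoplasmic domain at 1 μM ATP in 50 mM Hepes pH 7.5 with 5 mM MgCl2, 10 mM MnCl2, 0.1% BSA, 1.0 mM DTT and 0.01% Tween 80. Compounds were serially diluted 3-fold from 25 μM. Phosphopeptide was detected by AlphaScreen, PT66 anti-phosphotyrosine acceptor plus streptavidin donor beads, read after overnight incubation.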

[2] = biological target: T2, full-length human CSF-1R receptor (Homo sapiens, UniProt P07333); assay: In vitro inhibition of CSF-1R receptor tyrosine phosphorylation in transfected HEK293H cells stimulated with MCSF; format: cell-based; details: HEK293-H, tested at about 1 μM, read-out: pCSF1R percent inhibition
T2 construct: transfected with the full-length human CSF-1R receptor cloned in house; expressed in transfected cells; host or cells: HEK293H (Invitrogen Cat. #11631017)
T2 sequence (P07333 20-972): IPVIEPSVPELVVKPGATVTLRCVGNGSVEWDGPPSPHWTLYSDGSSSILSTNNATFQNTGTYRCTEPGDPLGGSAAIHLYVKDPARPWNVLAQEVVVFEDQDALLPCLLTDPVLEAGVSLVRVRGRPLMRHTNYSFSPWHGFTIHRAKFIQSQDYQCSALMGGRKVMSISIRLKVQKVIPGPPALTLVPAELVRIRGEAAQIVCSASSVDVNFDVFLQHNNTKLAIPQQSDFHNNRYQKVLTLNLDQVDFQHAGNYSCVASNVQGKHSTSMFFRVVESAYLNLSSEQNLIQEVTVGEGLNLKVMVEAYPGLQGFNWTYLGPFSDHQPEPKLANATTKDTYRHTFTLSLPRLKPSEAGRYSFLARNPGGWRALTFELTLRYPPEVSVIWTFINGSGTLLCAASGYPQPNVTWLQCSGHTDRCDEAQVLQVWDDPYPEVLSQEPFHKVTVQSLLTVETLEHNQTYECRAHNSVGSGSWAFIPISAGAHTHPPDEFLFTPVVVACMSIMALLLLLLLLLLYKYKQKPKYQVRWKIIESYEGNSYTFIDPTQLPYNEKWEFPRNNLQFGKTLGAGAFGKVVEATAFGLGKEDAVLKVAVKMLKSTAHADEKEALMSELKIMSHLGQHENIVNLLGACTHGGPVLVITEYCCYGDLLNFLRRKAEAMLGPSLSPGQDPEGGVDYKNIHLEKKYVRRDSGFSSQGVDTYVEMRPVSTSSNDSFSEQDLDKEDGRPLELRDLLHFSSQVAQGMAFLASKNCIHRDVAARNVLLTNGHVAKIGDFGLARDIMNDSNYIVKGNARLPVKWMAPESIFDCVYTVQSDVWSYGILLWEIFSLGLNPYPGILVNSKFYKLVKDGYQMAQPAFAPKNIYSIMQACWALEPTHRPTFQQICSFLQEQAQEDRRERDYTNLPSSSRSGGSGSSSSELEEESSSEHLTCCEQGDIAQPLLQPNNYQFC
Experimental: The lysate was then transferred to total CSF-1R antibody coated 96-well plates that had already been blocked with 3% Blocker A from Mesoscale discovery (MSD) for 2 hours and washed afterwards. Lysates were incubated overnight at 4° C. and the plates were then washed 4× with MSD Tris Wash Buffer. […] The plates were read on the Sector 6000 instrument (MSD). Raw data was imported in Abase and EC50s calculated with XL-fit data analysis software.

kinase domain of cKIT = biological target: T3, kinase domain of cKIT (Homo sapiens, UniProt P10721); assay: Inhibition of cKIT kinase signaling in an in vitro biochemical assay (alphascreen); details: tested at about 1 μM, read-out: cKit percent inhibition
T3 construct: The kinase domain of cKIT was assayed in 50 mM Hepes; purchased Upstate 14-559
T3 sequence (P10721 589-937 limits assumed): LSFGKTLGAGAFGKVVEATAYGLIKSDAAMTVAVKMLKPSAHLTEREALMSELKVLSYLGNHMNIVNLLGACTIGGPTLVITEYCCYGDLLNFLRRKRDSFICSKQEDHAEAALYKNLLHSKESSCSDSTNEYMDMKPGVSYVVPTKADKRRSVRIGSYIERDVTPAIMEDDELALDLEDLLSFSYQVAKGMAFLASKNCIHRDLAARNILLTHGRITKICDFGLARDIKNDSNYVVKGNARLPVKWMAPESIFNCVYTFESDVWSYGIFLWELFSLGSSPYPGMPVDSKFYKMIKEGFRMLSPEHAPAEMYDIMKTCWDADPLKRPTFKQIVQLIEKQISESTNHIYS

kinase domain of PDGFRβ = biological target: T4, kinase domain of PDGFRβ (Homo sapiens, UniProt P09619); assay: Inhibition of PDGFRb kinase signaling in an in vitro biochemical assay (alphascreen); details: tested at about 1 μM, read-out: PDGFRβ percent inhibition
T4 construct: The kinase domain of PDGFRβ was assayed in 50 mM Hepes; purchased Invitrogen P3082
T4 sequence (P09619 600-962 limits assumed): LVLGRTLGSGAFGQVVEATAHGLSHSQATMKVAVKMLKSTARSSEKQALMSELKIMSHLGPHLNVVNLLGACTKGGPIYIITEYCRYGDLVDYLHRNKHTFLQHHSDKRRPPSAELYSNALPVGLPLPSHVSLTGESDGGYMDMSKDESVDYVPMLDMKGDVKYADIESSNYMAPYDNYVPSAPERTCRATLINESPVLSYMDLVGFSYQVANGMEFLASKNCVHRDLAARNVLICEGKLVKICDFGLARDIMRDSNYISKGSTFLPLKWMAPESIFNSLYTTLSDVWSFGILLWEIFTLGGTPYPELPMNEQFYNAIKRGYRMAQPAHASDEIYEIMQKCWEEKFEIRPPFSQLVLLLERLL

[3] = system: MNFS60 (murine AML cells); assay: Cell viability assay in MCSF dependent MNFS60 cells (Cell Titer Glo); format: cell-based; details: Mus musculus, tested at about 1 μM, read-out: M-NFS-60 CP percent inhibition
Method in brief: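 Cells are cultured with 10 ng/ml MCSF and test compound for 72 hrs at 37° C. in 5% CO2. CellTiter-Glo reagent is then added to gauge viable cell number, and EC50s are fitted from triplicates.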

| Structure (SMILES) | inhibition at 1 µM [1] [%] | inhibition at 1 µM ([2]; HEK293H cells) [%] | inhibition at 1 µM (kinase domain of cKIT) [%] | inhibition at 1 µM (kinase domain of PDGFRβ) [%] | inhibition at 1 µM ([1]; compounds of Table 3) [%] | inhibition at 1 µM ([2]; compounds of Table 3) [%] | inhibition at 1 µM (kinase domain of cKIT; compounds of Table 3) [%] | inhibition at 1 µM (kinase domain of PDGFRβ; compounds of Table 3) [%] | inhibition at 1 µM ([3]; MCSF dependent MNFS60 cells) [%] | inhibition at 1 µM ([3]; compounds of Table 3) [%] | also measured |
| --- | --- | --- | --- | --- | --- | --- | --- | --- | --- | --- | --- |
| CC(C)CONC(=O)c1cc(Oc2ccc3nc(N[C@@H]4CCCC[C@H]4O)sc3c2)ccn1 [Example 381, 4-(2-((1R,2R)-2-hydroxycyclohexylamino)benzo[d]thiazol-6-yloxy)-N-isobutoxypicolinamide] | 100 | 99 | 30 | 20 | – | – | – | – | 100 | – | – |
| CNC(=O)c1cc(Oc2ccc3nc(NCc4cccc5c4OCCO5)oc3c2)ccn1 [Compound 65, 4-{2-[(2,3-Dihydro-benzo-[1,4]dioxin-5-ylmethyl)-amino]-benzooxazol-6-yloxy}-pyridine-2-carboxylic acid methylamide] | 99 | 97 | 98 | 38 | – | – | – | – | – | – | inhibition at 1 µM ([3]; MNFS60 cells): 100% |
| Cn1cc(-c2cc(Oc3ccc4nc(N[C@H]5CCCc6ccccc65)sc4c3)ccn2)cn1 [Example 362, (S)-6-(2-(1-methyl-1H-pyrazol-4-yl)pyridin-4-yloxy)-N-(1,2,3,4-tetrahydronaphthalen-1-yl)benzo[d]thiazol-2-amine] | 100 | 100 | 99 | 92 | – | – | – | – | 100 | – | – |
| OC[C@H](Nc1nc2ccc(Oc3ccnc4ccccc34)cc2s1)C1CCCCC1 [Example 240, (R)-2-cyclohexyl-2-(6-(quinolin-4-yloxy)benzo[d]thiazol-2-ylamino)ethanol] | – | – | – | – | 100 | 71 | 21 | 16 | – | 66 | – |
| COCCn1cc(-c2cc(Oc3ccc4nc(N[C@@H]5c6ccccc6C[C@@H]5O)sc4c3)ccn2)cn1 [Compound 58] | – | – | – | – | – | – | – | – | – | – | inhibition at 1 µM ([1]; compounds of Table 4): 100%; inhibition at 1 µM ([2]; compounds of Table 4): 95%; inhibition at 1 µM (kinase domain of cKIT; compounds of Table 4): 11%; inhibition at 1 µM (kinase domain of PDGFRβ; compounds of Table 4): 0%; inhibition at 1 µM ([3]; compounds of Table 4): 100% |
| Cn1cc(-c2cc(Oc3ccc4nc(N[C@@H]5c6ccccc6C[C@@H]5O)sc4c3)ccn2)cn1 [Example 348, (1R,2S)-1-(6-(2-(1-methyl-1H-pyrazol-4-yl)pyridin-4-yloxy)benzo[d]thiazol-2-ylamino)-2,3-dihydro-1H-inden-2-ol] | 100 | 90 | 47 | 55 | – | – | – | – | 100 | – | – |
| CNC(=O)c1cc(Oc2ccc3nc(NCc4ccccc4F)sc3c2)ccn1 [Compound 140, 4-[2-(2-Fluoro-benzylamino)-benzothiazol-6-yloxy]-pyridine-2-carboxylic acid methylamide] | 100 | 90 | 92 | 0 | – | – | – | – | – | – | inhibition at 1 µM ([3]; MNFS60 cells): 52% |
| CNC(=O)c1cc(Oc2ccc3nc(NCc4c(OC)cccc4OC)oc3c2)ccn1 [Compound 84, 4-[2-(2,6-Dimethoxy-benzyl-amino)-benzooxazol-6-yloxy]-pyridine-2-carboxylic acid methylamide] | 99 | 44 | 12 | 0 | – | – | – | – | – | – | inhibition at 1 µM ([3]; MNFS60 cells): 32% |
| O[C@@H]1CCCC[C@H]1Nc1nc2ccc(Oc3ccnc(-c4cccc(CN5CCOCC5)c4)c3)cc2s1 [Cmpd 166, (1R,2R)-2-(6-(2-(3-(morpholinomethyl)phenyl)pyridin-4-yloxy)benzo[d]thiazol-2-ylamino)cyclohexanol] | – | – | – | – | 100 | 78 | 13 | 0 | – | 49 | – |
| O[C@@H]1CCCC[C@H]1Nc1nc2ccc(Oc3ccnc(-c4nc5c([nH]4)CCCC5)c3)cc2s1 [Example 258, (1R,2R)-2-(6-(2-(4,5,6,7-tetrahydro-1H-benzo[d]imidazol-2-yl)pyridin-4-yloxy)benzo[d]thiazol-2-ylamino)cyclohexanol] | – | – | – | – | 100 | 99 | 44 | 62 | – | 100 | – |
| CCCn1cc(-c2cc(Oc3ccc4nc(N[C@@H]5CCCC[C@H]5O)sc4c3)ccn2)cn1 [Example 281, (1R,2R)-2-(6-(2-(1-propyl-1H-pyrazol-4-yl)pyridin-4-yloxy)benzo[d]thiazol-2-ylamino)cyclohexanol] | – | – | – | – | 100 | 96 | 22 | 36 | – | 100 | – |
| C[C@H](Nc1nc2ccc(Oc3ccnc(-c4cccnc4)c3)cc2s1)C1CCCCC1 [Example 274, (S)-6-(2,3'-bipyridin-4-yloxy)-N-(1-cyclohexylethyl)benzo[d] thiazol-2-amine] | – | – | – | – | 100 | 82 | 28 | 12 | – | 76 | – |

Second part, led by results:

| inhibition at 1 µM [1] [%] | inhibition at 1 µM ([2]; HEK293H cells) [%] | inhibition at 1 µM (kinase domain of cKIT) [%] | inhibition at 1 µM (kinase domain of PDGFRβ) [%] | inhibition at 1 µM ([1]; compounds of Table 3) [%] | inhibition at 1 µM ([2]; compounds of Table 3) [%] | inhibition at 1 µM (kinase domain of cKIT; compounds of Table 3) [%] | inhibition at 1 µM (kinase domain of PDGFRβ; compounds of Table 3) [%] | Structure (SMILES) | inhibition at 1 µM ([3]; MCSF dependent MNFS60 cells) [%] | inhibition at 1 µM ([3]; compounds of Table 3) [%] | also measured |
| --- | --- | --- | --- | --- | --- | --- | --- | --- | --- | --- | --- |
| 100 | 98 | 29 | 16 | – | – | – | – | O[C@@H]1CCCC[C@H]1Nc1nc2ccc(Oc3ccnc(-c4cn[nH]c4)c3)cc2s1 [Example 360, (1R,2R)-2-(6-(2-(1H-pyrazol-4-yl)pyridin-4-yloxy)benzo[d]thiazol-2-ylamino)cyclohexanol] | 100 | – | – |
| 100 | 50 | 21 | 0 | – | – | – | – | CNC(=O)c1cc(Oc2ccc3nc(N[C@H]4CCCN(C(=O)C5CCCC5)C4)sc3c2)ccn1 [Example 335, (S)-4-(2-(1-(cyclopentanecarbonyl)piper-idin-3-ylamino)benzo[d]thiazol-6-yloxy)-N-methylpicolinamide] | 57 | – | – |
| 99 | 91 | 85 | 91 | – | – | – | – | CNC(=O)c1cc(Oc2ccc3nc(NCC4CCCCCC4)oc3c2)ccn1 [Compound 101, 4-[2-(Cycloheptylmethyl-amino)-benzooxazol-6-yloxy]-pyridine-2-carboxylic acid methylamide] | – | – | inhibition at 1 µM ([3]; MNFS60 cells): 85% |
| 101 | 91 | 51 | 0 | – | – | – | – | Cn1cc(-c2cc(Oc3ccc4nc(N[C@H]5CCCN(S(=O)(=O)C6CC6)C5)sc4c3)ccn2)cn1 [Example 373, (S)-N-(1-(cyclopropylsulfonyl)piperidin-3-yl)-6-(2-(1-methyl-1H-pyrazol-4-yl)pyridin-4-yloxy)benzo[d]thiazol-2-amine] | 100 | – | – |
| 100 | 87 | 62 | 43 | – | – | – | – | CNC(=O)c1cc(Oc2ccc3nc(N[C@@H]4CCCC[C@H]4O)sc3c2Cl)ccn1 [Example 378, 4-(7-chloro-2-((1R,2R)-2-hydroxycyclohexylamino)benzo[d]thiazol-6-yloxy)-N-methylpicolinamide] | 90 | – | – |
| – | – | – | – | 100 | 47 | 12 | 0 | CNC(=O)c1cc(Oc2ccc3nc(NC4CCCCNC4=O)sc3c2)ccn1 (stereo not drawn) [Compound 93] | – | 23 | – |
